Experimental data published in ChEMBL document CHEMBL1146436, “Bioactive alkaloids from Illigera luzonensis” (1997).
Calls of active or inactive are those of the source. No cut-off for these calls is given here.

What was measured:
[1] = system: Aorta; experiment: Vasorelaxant activity against 80 mM potassium-induced contractions in rat thoracic aorta assessed as muscle contractions at 1 uM pretreated for 15 mins before potassium administration relative to control; type: functional; set-up: scale not given: the % may be the effect or the level left
[2] = system: Aorta; experiment: Vasorelaxant activity against 3 uM norepinephrine -induced phasic contractions in rat thoracic aorta assessed as muscle contractions at 1 uM pretreated for 15 mins before norepinephrine administration relative to control; type: functional; set-up: scale not given: the % may be the effect or the level left
[3] = system: Aorta; experiment: Vasorelaxant activity against 3 uM norepinephrine -induced tonic contractions in rat thoracic aorta assessed as muscle contractions at 1 uM pretreated for 15 mins before norepinephrine administration relative to control; type: functional; set-up: scale not given: the % may be the effect or the level left
[4] = Antiplatelet activity against ADP-induced rabbit platelet aggregation assessed as platelet aggregation at 25 ug/ml preincubated for 3 mins by turbidimetric method relative to control; type: functional, Oryctolagus cuniculus
[5] = Antiplatelet activity against arachidonic acid-induced rabbit platelet aggregation assessed as platelet aggregation at 25 ug/ml preincubated for 3 mins by turbidimetric method relative to control; type: functional, Oryctolagus cuniculus
[6] = Antiplatelet activity against collagen-induced rabbit platelet aggregation assessed as platelet aggregation at 25 ug/ml preincubated for 3 mins by turbidimetric method relative to control; type: functional, Oryctolagus cuniculus
[7] = Antiplatelet activity against PAF-induced rabbit platelet aggregation assessed as platelet aggregation at 25 ug/ml preincubated for 3 mins by turbidimetric method relative to control; type: functional, Oryctolagus cuniculus
[8] = Antiplatelet activity against ADP-induced rabbit platelet aggregation assessed as platelet aggregation at 100 ug/ml preincubated for 3 mins by turbidimetric method relative to control; type: functional, Oryctolagus cuniculus
[9] = Antiplatelet activity against arachidonic acid-induced rabbit platelet aggregation assessed as platelet aggregation at 100 ug/ml preincubated for 3 mins by turbidimetric method relative to control; type: functional, Oryctolagus cuniculus
[10] = Antiplatelet activity against collagen-induced rabbit platelet aggregation assessed as platelet aggregation at 100 ug/ml preincubated for 3 mins by turbidimetric method relative to control; type: functional, Oryctolagus cuniculus
[11] = Antiplatelet activity against PAF-induced rabbit platelet aggregation assessed as platelet aggregation at 100 ug/ml preincubated for 3 mins by turbidimetric method relative to control; type: functional, Oryctolagus cuniculus
[12] = Antiplatelet activity against arachidonic acid-induced rabbit platelet aggregation assessed as platelet aggregation at 20 ug/ml preincubated for 3 mins by turbidimetric method relative to control; type: functional, Oryctolagus cuniculus
[13] = Antiplatelet activity against arachidonic acid-induced rabbit platelet aggregation assessed as platelet aggregation at 10 ug/ml preincubated for 3 mins by turbidimetric method relative to control; type: functional, Oryctolagus cuniculus
[14] = Antiplatelet activity against arachidonic acid-induced rabbit platelet aggregation assessed as platelet aggregation at 5 ug/ml preincubated for 3 mins by turbidimetric method relative to control; type: functional, Oryctolagus cuniculus
[15] = system: Aorta; experiment: Vasorelaxant activity against 80 mM potassium-induced contractions in rat thoracic aorta assessed as muscle contractions at 100 ug/mL pretreated for 15 mins before potassium administration relative to control; type: functional; set-up: scale not given: the % may be the effect or the level left
[16] = system: Aorta; experiment: Vasorelaxant activity against 3 uM norepinephrine -induced phasic contractions in rat thoracic aorta assessed as muscle contractions at 100 ug/mL pretreated for 15 mins before norepinephrine administration relative to control; type: functional; set-up: scale not given: the % may be the effect or the level left
[17] = system: Aorta; experiment: Vasorelaxant activity against 3 uM norepinephrine -induced tonic contractions in rat thoracic aorta assessed as muscle contractions at 100 ug/mL pretreated for 15 mins before norepinephrine administration relative to control; type: functional; set-up: scale not given: the % may be the effect or the level left
[18] = Antiplatelet activity against arachidonic acid-induced rabbit platelet aggregation assessed as platelet aggregation at 2 ug/ml preincubated for 3 mins by turbidimetric method relative to control; type: functional, Oryctolagus cuniculus
[19] = Antiplatelet activity against arachidonic acid-induced rabbit platelet aggregation assessed as platelet aggregation at 1 ug/ml preincubated for 3 mins by turbidimetric method relative to control; type: functional, Oryctolagus cuniculus
[20] = Antiplatelet activity against arachidonic acid-induced rabbit platelet aggregation assessed as platelet aggregation at 50 ug/ml preincubated for 3 mins by turbidimetric method relative to control; type: functional, Oryctolagus cuniculus
[21] = system: Aorta; experiment: Effect on resting tension in rat thoracic aorta at 100 ug/mL pretreated for 15 mins; type: functional, tissue-based

| SMILES | Activity [8] | Activity [9] | Activity [10] | Activity [11] | Activity [12] | Activity [13] | Activity [14] | other results |
| --- | --- | --- | --- | --- | --- | --- | --- | --- |
| COC(=O)C1=C(C)NC(C)=C(C(=O)OC)C1c1ccccc1[N+](=O)[O-] [NIFEDIPINE] | – | – | – | – | – | – | – | Activity [1]: 0% |
| COc1cc2nc(N3CCN(C(=O)c4ccco4)CC3)nc(N)c2cc1OC [PRAZOSIN] | – | – | – | – | – | – | – | Activity [2]: 0%; Activity [3]: 0% |
| O=C1c2ccccc2-c2c3c(cc4ccnc1c24)OCO3 [LIRIODENINE] | – | – | – | – | – | – | – | Activity [4]: 5.4%; Activity [5]: 40.5%; Activity [6]: 5.3%; Activity [7]: 84.1% |
| COc1c(O)ccc2c1-c1c(OC)c(O)cc3c1[C@H](C2)NCC3 [HERNOVINE] | 87.2% | 47% | 0% | 64.1% | – | – | – | – |
| COc1cc2c(cc1O)C[C@H]1c3c(cc4c(c3-2)OCO4)CCN1C [CASSYTHICINE] | 0% | 0% | 0% | 68.1% | 0% | 16.2% | 51.4% | Activity [15]: 112.9%; Activity [16]: 225%; Activity [17]: 98.9%; Activity [18]: 69.1%; Activity [19]: 82.5% |
| COc1cc2c(cc1OC)-c1c3c(cc4c1[C@H](C2)N(C)CC4)OCO3 [DICENTRINE] | 4% | 0% | 3.2% | 7.6% | 0% | 55.1% | 77.7% | Activity [18]: 83.4% |
| CC(=O)Oc1ccccc1C(=O)O [ASPIRIN] | – | 0% | – | – | – | – | – | Activity [4]: 77.9%; Activity [5]: 0%; Activity [6]: 87.8%; Activity [7]: 90.4% |
| COc1cc2c(cc1O)C[C@@H]1NCCc3cc4c(c-2c31)OCO4 [ACTINODAPHNINE] | 0% | 0% | 0% | 0% | 42.7% | 60.5% | 80.3% | Activity [20]: 0%; Activity [15]: 41.9%; Activity [16]: 40.6%; Activity [17]: 15.5%; Activity [21]: inactive |
| COc1ccc2c(c1O)-c1c3c(cc4c1[C@H](C2)NCC4)OCO3 [LAUNOBINE] | 84.2% | 11.8% | 29.9% | 70.7% | – | – | – | – |
| COc1ccc2c(c1O)-c1c3c(cc4c1[C@H](C2)N(C)CC4)OCO3 [(S)-BULBOCAPNINE] | 86.8% | 89.3% | 83.2% | 86.6% | – | – | – | – |
| COc1cc2c(cc1OC)-c1c3c(cc4ccnc(c14)C2=O)OCO3 [DICENTRINONE] | – | – | – | – | – | – | – | Activity [15]: 111.1%; Activity [16]: 89.7%; Activity [17]: 64%; Activity [21]: inactive |
| COc1ccc2c(c1OC)-c1c3c(cc4c1[C@H](C2)N(C)CC4)OCO3 | 47.9% | 0% | 0% | 75.1% | 50.4% | 72.5% | 83.4% | Activity [20]: 0% |
